Experimental data as given in US20260231936A1, “COMPOUNDS AND COMPOSITIONS THAT ATTRACT THE SPECIES PSEUDOCOCCUS LONGISPINUS, ATTRACTANT DEVICE AND METHODS FOR CONTROLLING AND/OR MONITORING THE PEST” (Universitat Politècnica de València, priority 2023, published 2026).

Experiments:
[1] = system: populations of P. longispinus; test: Preliminary trap tests by UPV in persimmon cultivation, Valencian Community; format: in vivo, Pseudococcus longispinus
Excerpt: The sex pheromone of the species P. longispinus was described by Millar et al. (Sex pheromone of the longtailed mealybug: a new class of monoterpene structure. Organic Letters 2009, 11, 2683-2685) as the compound 2-(1,5,5-trimethylcyclopent-2-en-1-yl)ethyl acetate, in populations of the species collected in the United States. However, this substance turned out to be ineffective in attracting populations of P. longispinus in persimmon cultivation in the Valencian Community. […] This is not uncommon, and this phenomenon has been described for the mealybug P. ficus, whose Californian populations produce a single-component pheromone, while Israeli populations produce an additional compound (Zada, A., Dunkelblum, E., Assael, F., Harel, M., Cojocaru, M. & Mendel, Z. (2003) Sex pheromone of the vine mealybug, Planococcus ficus in Israel: occurrence of a second component in a mass-reared population. Journal of Chemical Ecology, 29, 977-988).

[2] = system: Pseudococcus longispinus males; test: Field trial of attraction response of males, persimmon orchard in Alginet; format: in vivo; conditions: for Captures (mean) of P. longispinus males: rubber septum carrier loaded with 250 μg, white sticky cardboard trap, six blocks, number of males captured per trap and per day compared
Procedure: (§1) The response of Pseudococcus longispinus males to 2-(1,5-dimethyl-4-methylenecyclopent-2-en-1-yl)ethyl acetate was evaluated by means of a field trial carried out in a persimmon orchard, located in the town of Alginet (Valencia, Spain). Six blocks of 3 devices were installed: (A) a device with a carrier, without attractant and with a trap consisting of a white sticky cardboard (95×150 mm), (B) a device with a carrier loaded with 250 μg of the described substance by Miller et al. in 2009 (e.g. 2-(1,5,5-trimethylcyclopent-2-en-1-yl)ethyl acetate) and a trap consisting of a white sticky cardboard, and (C) a carrier device loaded with 250 μg of 2-(1,5-dimethyl-4-methylenecyclopent-2-en-1-yl)ethyl acetate and a trap consisting of a white sticky cardboard. Within each block, the devices were placed at a distance of 10 m from each other, while the distance between blocks was at least 30 m. The carriers loaded with the substances were of the rubber septa type and were inserted in the center of the trap.
(§2) The captures obtained in each of the traps were reviewed biweekly and the captured individuals were taken to the laboratory to be identified and counted.
(§3) The number of males captured per trap and per day was compared using a variance analysis (ANOVA; LSD test for comparison of means, P<0.05), prior transformation (ln(x+1)) of the data in order to homogenize the variance.

[3] = system: Pseudococcus longispinus males; test: Second field trial of attractant activity, persimmon orchard in L'Alcúdia; format: in vivo; conditions: for Attractant activity of baited devices (in words): 250 μg, versus traps without attractant (A); for Captures (mean) of P. longispinus males: rubber septum carrier loaded with 250 μg, white sticky cardboard trap, four blocks
Procedure: as §1, §2, §3
A second field trial was conducted to evaluate the attractant activity of 2-(1,5-dimethyl-4-methylenecyclopent-2-en-1-yl)ethyl propionate, in a persimmon orchard located in L'Alcúdia (Valencia, Spain). Four blocks of 3 devices were installed: (A) a device with a carrier, without attractant and with a trap consisting of a white sticky cardboard (95×150 mm), (B) a device with a carrier loaded with 250 μg of 2-(1,5-dimethyl-4-methylenecyclopent-2-en-1-yl)ethyl propionate and a trap consisting of a white sticky cardboard, and (C) a carrier device loaded with 250 μg of 2-(1,5-dimethyl-4-methylenecyclopent-2-en-1-yl)ethyl acetate and a trap consisting of a white sticky cardboard. The rest of trial conditions were the same as those described above.

[4] = Analysis of attractant content of the carrier after field exposure (emission); format: physicochemical
Procedure: as §1, with “Alginet” left out, “trap. […] Therefore, the average emission during those 21 days is 5.52±1.20 μg/day.” for “trap.”

SMILES | Attraction of populations of P. longispinus (in words) ([1]; persimmon cultivation in the Valencian Community) | Males captured by traps baited with virgin females relative to traps baited with the synthetic pheromone ([1]; preliminary tests, virgin females of P. longispinus as comparator) [times] | Captures (mean) of P. longispinus males [2] | Attractant activity of baited devices (in words) [3] | Captures (mean) of P. longispinus males [3] | Final content of the substance in the carrier ([4]; after 21 days, carrier initially loaded with 250 μg) [µg] | Average emission ([4]; during 21 days, rubber septum loaded with 250 μg) [µg/day] | Attractive power of baited devices (in words) ([2]; 250 μg, versus traps without attractant (A) and pheromone described by Millar et al. (B))
CC(=O)OCCC1(C)C=CCC1(C)C (centres unmarked) [Millar et al. (B), 2-(1,5,5-trimethylcyclopent-2-en-1-yl)ethyl acetate] | ineffective | 100 | 0.21 a | – | – | – | – | –
C=C1C=CC(C)(CCOC(C)=O)C1C (racemic) [Acetate of formula I (C), 2-(1,5-dimethyl-4-methylenecyclopent-2-en-1-yl)ethyl acetate] | – | – | 19.35 b | highest level of captures | 406.58 c | 134 | 5.52 ± 1.20 | significantly higher attractive power
C=C1C=CC(C)(CCOC(=O)CC)C1C (centres unmarked) [Propionate of formula I (B), 2-(1,5-dimethyl-4-methylenecyclopent-2-en-1-yl)ethyl propionate] | – | – | – | significant attractant activity | 89.07 b | – | – | –
